# Laboratory results taken from a melting point compilation (Tetko et al.; mined from patent text by program, amines drawn as free bases though some values may be those of a salt).
row,Structure (SMILES),melting point
1,CC(=O)c1ccc(OCCCOc2cc(NC(=O)C(=O)O)c(C)cc2Br)c(CCC(F)(F)F)c1O,133 to 135 °C
2,Nc1ccc(NC(=O)NCc2ccc3c(c2)CN(C2CCC(=O)NC2=O)C3=O)cc1 (configuration not stated),> 400 °C
3,COc1n[nH]c(=O)n1O,211 °C
4,COc1cccc(CBr)c1CBr,78 to 79 °C
5,OC(CCN1CCN(c2cccc(C(F)(F)F)c2)CC1)COc1ccccc1 (configuration not stated),83 to 84 °C
6,C=Cn1cc(C(=O)O)c(=O)c2cc(F)c(N3CCN(C(=O)OCC)CC3)nc21,246 to 248 °C
7,CCOc1ccc2c(c1O)CCN(C(C)=O)[C@@H]2c1cc(Cl)cc(Cl)c1,238 to 241 °C
8,COC(OC)C1CN=C(c2cc3cccc(NS(=O)(=O)c4ccccn4)c3[nH]2)S1 (configuration not stated),153 °C
9,COC(=O)C1=C(C)NC(C)=C(C(=O)OCCN2CCN(C(c3ccc(Cl)cc3)c3ccc(Cl)cc3)CC2)C1c1cccc([N+](=O)[O-])c1 (configuration not stated),83 to 87 °C
10,CC(C)(C)C(NC(=O)c1ccc(Cl)cc1)NC(Nc1cccnc1)=C(C#N)C#N (configuration not stated),213 to 214 °C
11,C#CCOc1cc(Oc2ccccc2)ncn1,71.1 °C
12,COC(=O)[C@@H]1CCCC[C@H]1C[C@@H](O)[C@H](Cc1ccccc1)NC(=O)OC(C)(C)C,127 to 128 °C
13,CN1CCC(Nc2nc3ccccc3n2Cc2cnccn2)CC1,169 °C
14,O=S(=O)(C1CC1)C(F)(F)C(O)(Cn1cncn1)c1ccc(F)cc1F (configuration not stated),130 to 132 °C
15,CCN(CC)c1nc(Cl)c([N+](=O)[O-])s1,85 °C
16,CCN1C(=O)SC(=Cc2ccc([N+](=O)[O-])cc2)C1=O,217 to 218 °C
17,C=C(C)C(=O)OCCCCOC(=O)/C=C/c1ccc(OC(=O)c2ccc(OC)cc2)cc1,89 to 90 °C
18,O=[N+]([O-])C=C1NCCCCN1,152 to 154 °C
19,CC(CC(=O)c1ccc(Br)cc1)C(=O)N1CCCC1C(=O)O (configuration not stated),136 to 138 °C
20,CCOCc1nc2c(N)nc(C)c(C)c2n1CCCCNS(C)(=O)=O,165 to 167 °C
21,[N-]=[N+]=N[C@]1(C(=O)O)[C@H]2[C@@H](C[C@H]1O)[C@@H]2C(=O)O,124 to 128 °C
22,C[C@@H](SC(CO)CO)[C@](O)(Cn1cncn1)c1ccccc1F,121 to 123 °C
23,CC(C)CC(=O)CNC(=O)c1ccc(Cl)cc1,127 to 129 °C

row,Structure (SMILES),melting point
1,C=CCOC(=O)C(C#N)=C(SC)SC,36 to 37.5 °C
2,c1ccc(N2CCN(Cc3nc4ccccc4[nH]3)CC2)nc1,220 to 221 °C
3,CC(=O)Nc1ccc2c(c1)OCO2,138 to 139 °C
4,O=Cc1c[nH]c2ccc(C(F)(F)F)cc12,242 to 243 °C
5,COC(=O)c1ccc(Cl)cc1OS(C)(=O)=O,82.5 to 84.5 °C
6,O=C1c2ccccc2C(=O)N1Cc1noc(-c2ncn3c2[C@@H]2CCN2C(=O)c2sccc2-3)n1,155 to 157 °C
7,CCCCNC(=NC#N)Nc1cccnc1,96 to 97 °C
8,O=[N+]([O-])c1cnn(C2CC2)c1,44 to 45 °C
9,COc1ccc(C=CCN2CCc3nc(N)sc3CC2)cc1OC,122 to 126 °C
10,CC(C)(C)OC(=O)Nc1cc(Br)cc(C(F)(F)F)c1,113 to 115 °C
11,COCC(OC(C)=O)C1CC(O)C2(C)CCC3C(CCC4=CC(=O)C=C(C)C43C)C12 (configuration not stated),203 to 204 °C
12,Nc1ccc(N2C(=O)c3ccc(Cl)cc3C2=O)c(Cl)c1,198 to 201 °C
13,Nc1nc2c(N)cc(OC(F)(F)F)cc2s1,206 °C
14,CCOC(=O)C1=C(C)NC(C)=C(C(=O)OCC)C1c1ccc(Cl)cc1Cl,148 to 149 °C
15,CCCCCc1ccc(CCC2CCC(C#N)CC2)cc1 (configuration not stated),22.4 °C
16,O=c1cc(C(F)(F)F)nc(ON=C2CCCC2)n1-c1cc(Oc2ccccc2[N+](=O)[O-])c(Cl)cc1F,76 to 78 °C
17,COc1ccc(NC(=O)c2cc([N+](=O)[O-])ccc2NC(=O)c2ccc(C(C)(C)C)cc2)cc1,210 to 211 °C
18,Nc1nc(Cl)c(C2=NCCN2)c(Cl)n1,197 to 198 °C
19,O=c1[nH]c2cc(Cl)ccc2n1CCCBr,162 °C
20,COc1ccc(N2CCN(C)CC2)c2c1CC[C@H](NC(=O)c1ccc(N3CCOCC3)cc1)C2,229 to 232 °C
21,N#Cc1ccc(-c2ccc(-c3cccs3)s2)s1,122 to 125 °C
22,CCc1c(CCNC(=O)CCCCC(=O)NC(C)(C)Cc2ccc3c(c2CC)OCO3)ccc(OC)c1OC,103 to 104 °C
23,CCC(=O)Oc1ccc(NCc2c(F)c(F)c(C(F)(F)F)c(F)c2F)cc1C(=O)O,188 to 191 °C

row,Structure (SMILES),melting point
1,Cc1ccc(C(O)c2nc3c(cc2C)CCCCC3)cc1 (configuration not stated),143 to 145 °C
2,O=c1c2cc([N+](=O)[O-])ccc2nc2n1CS(=O)(=O)N2,> 300 °C
3,O=C1C(=O)N2CCCc3cccc1c32,199 °C
4,N#CCCNC1(CC2CCCCC2)C(=O)Nc2ccc(Cl)cc21 (configuration not stated),208 °C
5,NC(CCc1ccccc1CP(=O)(O)O)C(=O)O (configuration not stated),247 to 249 °C
6,O=C1NC(=O)C2(O1)C(=O)N(Cc1ccc(Cl)c(Cl)c1)c1c(F)cccc12 (configuration not stated),101 to 102 °C
7,CN1CCC(CNc2ncc3ncnc(Nc4ccc(F)c(Cl)c4)c3n2)CC1,198 to 201 °C
8,O=C(Nc1ccc(-n2nc(C(F)(F)F)cc2C(F)(F)F)nc1)c1cc(F)c(F)cc1Cl,113 to 116 °C
9,COC(=O)c1nc(CI)n(-c2ccc(Cl)cc2C(=O)c2ccccc2)n1,139 to 142 °C
10,CN1CCC(c2c[nH]c3ccc(OCc4ccccc4)cc23)CC1,163 to 164 °C
11,CCOC(=O)c1cn(CC)c2cc(C3CCCCC3)c(OC)cc2c1=O,154 to 156 °C
12,CCc1ccc2c(c1)C(=O)Nc1cccnc1N2C(=O)NCCN1CCCCC1CN(CC)CC (configuration not stated),124 to 126 °C
13,O=C(O)c1ccc([N+](=O)[O-])c(C(=O)O)c1,257 to 258 °C
14,CCOC(=O)c1cc2cc(Cl)ccc2n1C,81.5 to 82 °C
15,S=C=Nc1ccc2nccnc2c1Br,157 to 158 °C
16,CS(=O)(=O)c1ccc(C2=NN(S(=O)(=O)c3ccc(I)cc3)CCC2)cc1,198 to 204 °C
17,O=C1C[C@@H]2CCCC[C@@H]2N1O (relative stereo),85 to 86 °C
18,Cc1cccc(Cl)c1S(=O)(=O)NC(=O)n1nc(Br)n(N(C)C)c1=O,163 °C
19,COCCN1CCC(O)(c2cccc(Cl)c2Cl)CC1,135 to 137 °C
20,Cc1cn(Cc2ccc(N)cc2)cn1,141 to 142 °C
21,N#Cc1ccc(-c2ccc(OC[C@H](O)CCc3cccnc3)cc2)cc1,135 to 136 °C

# Other lines, results leading:
row,melting point,Structure (SMILES)
1,166 to 168 °C,CCC(C(=O)Oc1cc(=O)n(-c2ccccc2)c2ncccc12)c1ccccc1 (configuration not stated)
2,125 to 126 °C,Cc1oc(-c2ccccc2)nc1COc1ccc(CO)nc1
3,177 to 178 °C,CCCc1nc2cccc(C(=O)OC)c2n1Cc1ccc(-c2ccccc2C(=N)NOC(C)=O)cc1
4,101 to 102 °C,Cc1ccc(OCCCCCOc2ccc3ccc(=O)oc3c2)cn1
5,119 to 121 °C,COc1cnc2c(C)ccc(-c3cccc(C(F)(F)F)c3)c2n1
6,197 to 198 °C,CCOC(=O)Cc1c(C(=O)O)c(C)c(C(=O)c2ccc(Cl)cc2)n1C
7,192 to 193 °C,CCn1nc(C(=O)OC(C)C)cc(Nc2cncc3ccccc23)c1=O
8,> 280 °C,O=C(c1cc2c(cn1)[nH]c1ccccc12)n1ccnc1
9,189 to 191 °C,CN(C)NC(=O)NC1c2ccccc2Oc2ccccc21
10,85 to 86 °C,COc1ccc2c(c1)C(=NOCCN1CCCC1)c1c-2cnc2ccccc12
11,76 °C,CCOC(=O)C(CC)CCc1cc(-c2ccccc2)nc2ccccc12 (configuration not stated)
12,101 to 102 °C,CC(=O)c1c(O)cccc1OCC(O)COc1ccccc1C (configuration not stated)
13,101 to 103 °C,Cc1c(-n2ccnc2)n(CCCCCCCC(=O)O)c2ccccc12
14,150 °C,CSc1ccc(CN(C)CCOc2ccc(NC(=O)c3cccc4c(=O)c5ccccc5[nH]c34)cc2)cc1
15,122 to 125 °C,Cc1ccc(Cc2cnc(NCCSCc3cccc(CN(C)C)c3)[nH]c2=O)cn1
16,228 °C,CCN(CC)c1ccc(C=NNC(=O)c2ccc(O)cc2)cc1
17,137 to 139 °C,CCOC(=O)C1=C(c2ccccc2)N(c2ccccc2)C(=O)C1C(=O)c1ccccc1 (configuration not stated)
18,137 to 138 °C,CCCc1c(OCC(O)COc2ccc3c(=O)cc(CCC(=O)OCC)oc3c2CCC)ccc(C(C)=O)c1O (configuration not stated)

row,melting point,Structure (SMILES)
1,175 °C,COCCO[C@@H]1c2ccc3c(nc(C)n3C)c2O[C@H](c2ccccc2)[C@H]1OC(=O)CN(C)C
2,190 to 196 °C,COc1ccc(N2Cc3nc(C(=O)O)nn3-c3cccnc32)cc1
3,229 to 230 °C,CS(=O)(=O)Nc1cc2oc(C#N)c(NC=O)c(=O)c2cc1Oc1ccccc1
4,198 °C,CCOC(=O)COc1ccc(-c2nc3ncccc3[nH]2)c(O)c1
5,79 to 81 °C,O=C(O)CCCCCOC(=O)n1c(-c2cscn2)nc2ccccc21
6,153 to 155 °C,O=C1CC(c2ccccc2)C(=S)N1c1ccc(Cl)cc1 (configuration not stated)
7,128 to 130 °C,Cc1c(-c2ccccc2)oc2c(C(=O)N(C)CCO)cccc2c1=O
8,93 to 100 °C,COc1cc(F)ccc1-c1ccc(S(=O)(=O)N2c3ccccc3CC2C(=O)O)cc1 (configuration not stated)
9,276 °C,CCCCc1cnc2ccccc2c1Nc1ccc(C(=O)O)cc1
10,202 to 205 °C,CC(=O)Nc1nonc1-c1nc2ccccc2n1CC(=O)c1ccc(Cl)cc1
11,58 to 59 °C,O=C(O)C(=O)c1ccc(OCCOCCOc2ccccc2)cc1
12,56 to 57 °C,CN(C)C(=O)c1ccccc1Sc1ccc(F)cc1[N+](=O)[O-]
13,178 to 179 °C,CN(C)C(=O)CNc1cc(-c2ccccc2)nc(-c2ccc(C(F)(F)F)cc2)n1
14,157 to 159 °C,CNC(=O)c1cnn(-c2ccccc2)c1Br
15,130 to 133 °C,O=C(O)C(Cc1ccccc1)Nc1cc(-c2ccc(OCc3ccccc3)nc2)ncn1 (configuration not stated)
16,93 °C,Cc1csc2ccc3[nH]c4c(c3c12)CN(Cc1ccccc1)CC4
17,225 to 227 °C,Cc1nc(-n2ccc(OCc3ccccc3)cc2=O)sc1C(=O)NCc1ccc(F)c(F)c1
